Measured values: patent publication US9902725B2, “Heterocyclic derivatives as RORgamma modulators” (GENFIT, priority 2014, dated 2018)

Tests used:
[1] = Microsomal stability, human microsomes (CEREP); assay type: in vitro ADME; details: 0.1 μM, 0.1 mg/mL microsomal protein
Method: (§1) All the assays were conducted at CEREP (CEREP, France and USA). Metabolic compound stability was tested in human (CEREP, Ref 607) and mouse (CEREP, Ref: 806) microsomes. Inhibition of human drug-metabolizing cytochromes P450 was tested on the five most commonly responsible enzymes of metabolism of xenobiotics, CYP1A2 (CEREP, Ref 389), CYP2C9 (CEREP, Ref 412), CYP2C19 (CEREP, Ref 390), CYP2D6 (CEREP, Ref 1338) and CYP3A4 (CEREP, Ref 391).
(§2) Briefly, the standard conditions for CEREP's stability assays include incubation of test compound at 0.1 μM with human or mouse microsomes for 60 minutes in duplicate. The protein concentration of microsomes is 0.1 mg/mL. The parent compound is detected by HPLC-MS/MS analysis. The quantity of the parent compound that remains intact upon 60 minutes of microsome exposure (% remaining) is calculated by comparing the peak area of the parent compound at 60 minutes of exposure to the time zero.

[2] = Microsomal stability, mouse microsomes (CEREP); assay type: in vitro ADME; details: 0.1 μM, 0.1 mg/mL microsomal protein
Method: as §1, §2

[3] = target: T1, CYP1A2 (Homo sapiens, UniProt P05177); test: CYP inhibition CYP1A2 (CEREP); assay type: in vitro ADME; details: human recombinant CYP, single concentration (typically 10 μM)
T1 sequence (P05177 1-516): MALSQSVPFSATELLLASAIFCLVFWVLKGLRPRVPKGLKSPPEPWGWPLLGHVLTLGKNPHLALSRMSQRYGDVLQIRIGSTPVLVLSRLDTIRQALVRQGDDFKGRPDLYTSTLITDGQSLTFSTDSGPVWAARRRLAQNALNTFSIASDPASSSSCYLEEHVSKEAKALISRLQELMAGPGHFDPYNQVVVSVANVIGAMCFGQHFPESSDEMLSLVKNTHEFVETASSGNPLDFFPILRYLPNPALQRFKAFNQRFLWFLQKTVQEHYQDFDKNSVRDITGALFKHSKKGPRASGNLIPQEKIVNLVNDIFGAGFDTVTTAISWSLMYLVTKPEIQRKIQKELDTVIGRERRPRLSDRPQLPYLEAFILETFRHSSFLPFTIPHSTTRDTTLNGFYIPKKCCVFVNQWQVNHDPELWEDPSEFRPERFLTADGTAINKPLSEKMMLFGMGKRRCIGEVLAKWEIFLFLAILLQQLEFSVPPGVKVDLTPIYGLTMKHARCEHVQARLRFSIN
Method: as §1
(§3) Briefly, CEREP's CYP inhibition assay uses traditional probe substrates, which are specific to individual CYP isoforms. 3-cyano-7-ethoxycoumarin is mainly catalyzed by CYP1A2 and CYP2C19, 3-[2-(N,N-diethyl-N-methylammonium)ethyl]-7-methoxy-4-methylcoumarin for CYP2C9 and CYP2D6 and finally, 7-benzyloxy-4-trifluoromethylcoumarin is pathway catalyzed predominantly by CYP3A4. The inhibition assays were performed with human recombinant CYP isoforms preparations. HPLC MS/MS methods are used to detect metabolites in these assays. Compounds were tested at single concentrations (typically 10 μM) and data were expressed as percent of control inhibition.

[4] = target: CYP2C9 (Homo sapiens, UniProt P11712); test: CYP inhibition CYP2C9 (CEREP); assay type: in vitro ADME; details: single concentration (typically 10 μM)
Sequence of CYP2C9 (P11712 whole entry): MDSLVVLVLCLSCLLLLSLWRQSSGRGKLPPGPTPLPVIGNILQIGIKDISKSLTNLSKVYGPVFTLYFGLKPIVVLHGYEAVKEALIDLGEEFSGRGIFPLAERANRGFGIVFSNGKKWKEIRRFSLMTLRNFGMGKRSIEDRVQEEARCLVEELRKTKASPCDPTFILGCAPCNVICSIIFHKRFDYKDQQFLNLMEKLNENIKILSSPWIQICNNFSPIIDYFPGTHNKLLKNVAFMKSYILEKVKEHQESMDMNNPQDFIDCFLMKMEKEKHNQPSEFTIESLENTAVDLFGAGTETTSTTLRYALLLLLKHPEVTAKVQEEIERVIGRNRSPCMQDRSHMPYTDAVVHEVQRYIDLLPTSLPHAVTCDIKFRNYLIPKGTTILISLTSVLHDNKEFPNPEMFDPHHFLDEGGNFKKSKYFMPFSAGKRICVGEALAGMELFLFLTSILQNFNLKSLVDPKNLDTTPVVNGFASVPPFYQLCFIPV
Method: as §1, §3

[5] = target: CYP2C19 (Homo sapiens, UniProt P33261); test: CYP inhibition CYP2C19 (CEREP); assay type: in vitro ADME; details: single concentration (typically 10 μM)
Sequence of CYP2C19 (P33261 whole entry): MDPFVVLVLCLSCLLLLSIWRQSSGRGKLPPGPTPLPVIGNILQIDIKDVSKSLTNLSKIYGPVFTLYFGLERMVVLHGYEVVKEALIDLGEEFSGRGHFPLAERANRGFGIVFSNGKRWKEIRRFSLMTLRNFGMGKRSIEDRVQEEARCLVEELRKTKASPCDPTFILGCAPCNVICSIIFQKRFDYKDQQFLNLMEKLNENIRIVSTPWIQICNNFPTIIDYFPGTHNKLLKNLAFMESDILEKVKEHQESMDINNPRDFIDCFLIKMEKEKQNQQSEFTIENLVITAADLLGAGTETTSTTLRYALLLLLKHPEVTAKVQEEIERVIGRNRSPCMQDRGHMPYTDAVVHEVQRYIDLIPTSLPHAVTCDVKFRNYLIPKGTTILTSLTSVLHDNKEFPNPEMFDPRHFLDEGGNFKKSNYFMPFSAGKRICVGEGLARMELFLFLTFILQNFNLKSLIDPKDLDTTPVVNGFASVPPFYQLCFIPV
Method: as §1, §3

[6] = target: CYP2D6 (Homo sapiens, UniProt P10635); test: CYP inhibition CYP2D6 (CEREP); assay type: in vitro ADME; details: single concentration (typically 10 μM)
Sequence of CYP2D6 (P10635 whole entry): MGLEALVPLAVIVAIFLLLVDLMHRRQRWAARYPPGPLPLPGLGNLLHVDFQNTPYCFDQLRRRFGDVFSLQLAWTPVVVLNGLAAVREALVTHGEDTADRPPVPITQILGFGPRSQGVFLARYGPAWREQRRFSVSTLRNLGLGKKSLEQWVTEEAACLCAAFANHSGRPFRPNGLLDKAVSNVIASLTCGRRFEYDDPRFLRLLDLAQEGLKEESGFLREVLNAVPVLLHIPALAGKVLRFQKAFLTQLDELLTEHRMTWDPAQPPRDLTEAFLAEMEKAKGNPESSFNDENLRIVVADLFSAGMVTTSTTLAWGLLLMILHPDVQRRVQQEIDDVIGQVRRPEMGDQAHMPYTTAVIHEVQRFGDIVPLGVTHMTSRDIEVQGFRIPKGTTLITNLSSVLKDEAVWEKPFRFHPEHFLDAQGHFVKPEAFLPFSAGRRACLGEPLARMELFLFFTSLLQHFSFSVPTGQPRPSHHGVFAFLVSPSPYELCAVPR
Method: as §1, §3

[7] = target: CYP3A4 (Homo sapiens, UniProt P08684); test: CYP inhibition CYP3A4 (CEREP); assay type: in vitro ADME; details: single concentration (typically 10 μM)
Sequence of CYP3A4 (P08684 whole entry): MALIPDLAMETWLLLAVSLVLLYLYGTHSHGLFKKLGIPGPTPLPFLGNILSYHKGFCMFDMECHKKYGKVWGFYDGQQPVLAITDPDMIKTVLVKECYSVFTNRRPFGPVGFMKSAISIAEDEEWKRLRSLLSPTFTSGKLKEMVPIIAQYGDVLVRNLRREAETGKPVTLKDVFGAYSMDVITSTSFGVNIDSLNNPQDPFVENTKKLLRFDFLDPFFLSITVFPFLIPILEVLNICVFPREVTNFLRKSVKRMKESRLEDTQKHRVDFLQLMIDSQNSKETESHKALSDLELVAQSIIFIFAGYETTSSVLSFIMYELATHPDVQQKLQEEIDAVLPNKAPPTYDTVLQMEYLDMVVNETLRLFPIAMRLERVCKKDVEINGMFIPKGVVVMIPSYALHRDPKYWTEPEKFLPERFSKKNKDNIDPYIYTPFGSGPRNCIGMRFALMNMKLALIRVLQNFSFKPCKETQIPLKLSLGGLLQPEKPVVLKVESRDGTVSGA
Method: as §1, §3

[8] = tested on: MOG-induced EAE mice; test: MOG-induced EAE in mice, clinical score; assay type: in vivo
Method: 8-10 week old, male C57BL/6 mice were purchased from Janvier Lab (St Berthevin, France) and housed in a specific pathogen free (SPF) animal facility for one week before the start of the studies. Peptide antigen MOG35-55 (Myelin Oligodendrocyte Glycoprotein) ([…], SEQ ID NO:1, Polypeptide group, France) was dissolved in PBS and emulsified with an equal volume of Complete Freund's Adjuvant (CFA) containing 5 mg/mL of mycobacteria and administrated by subcutaneous injection at the dorsal flanks on day 0 at 200 μg/mouse. To ensure induction of reliable EAE, 200 ng of Bordetella pertussis toxin (Sigma) was given via intraperitoneal injection at day 0 and 2 (Cua, Sherlock et al. 2003; Zhang, Gran et al. 2003). Animals were treated with drug beginning 2 days before peptide injection. Animals were randomized into groups for treatment by weight, so that the average weight of each group was similar. The groups were segregated by cage. Compounds according to the invention were suspended in Carboxymethyl Cellulose (CMC) 1% (Sigma) and Tween80 0.1% (Sigma) by sonication and animals were dosed daily by gavage with 10 mL/kg body weight. The daily dose of Cpd. 1 was 30 mg/kg and vidofludimus (reference compound) at 60 mg/kg in protocol 1 to assess IL-17 A and IL-17F secretion from splenocytes ex vivo. In protocol 2, mice were treated with Cpd. 1 at 3 and 10 mg/Kg or T4 compound at 1 and 10 mg/kg daily by gavage to assess the clinical score. Clinical assessment of EAE was performed daily according to the following criteria: 0) no disease, 1) limp tail, 2) weak/partially paralyzed hind legs, 3) completely paralyzed hind legs, 4) complete hind and partial front leg paralysis, and 5) complete paralysis/death. For Cytokine quantifications, mice were euthanized 20 days after EAE induction. Spleen-isolated cells were collected and adjusted to 2×10^6 cells/mL. Cells were cultured in complete RPMI medium (RPMI supplemented with 10% of fetal calf serum, 1% glutamine, and 1% penicillin/streptomycin). Spleen cells were stimulated with MOG (20 μg/mL) (Polypeptide group, France). Cytokine levels were evaluated 48 h later by ELISA (R&D Systems Europe) or HTRF (CisBio, France) in culture supernatants using IL-17A and IL-17-F according to the manufacturer's protocols. The statistical significance was based on Student's t test (p<0.05, unpaired test).

[9] = tested on: multiple sclerosis model; details: administered by injection; cited from earlier work
[10] = tested on: psoriasis model; details: administered by injection; cited from earlier work
[11] = tested on: refractory Crohn diseased patients; details: phase IIb; cited from earlier work

## Cc1ccc(C(NC(=O)Cc2ccc3oc(C(O)c4c(C)noc4C)cc3c2)c2ccccc2)c(C)c1 (single isomer, unassigned) [Cpd. T-3, 2-(2-(hydroxy(3,5-dimethylisoxazol-4-yl)methyl)benzofuran-5-yl)-N-((2,4-dimethylphenyl)(phenyl)methyl)acetamide, reference compound]
[1]
  Human microsomes (% Cpd. remaining at 60 min): 0%
[2]
  Mouse microsomes (% Cpd. remaining at 60 min): 0%
[3]
  CYP 1A2 (% inhibition of Control): −5%
[4]; human recombinant CYP
  CYP 2C9 (% inhibition of Control): 75%
[5]; human recombinant CYP
  CYP 2C19 (% inhibition of Control): 92%
[6]; human recombinant CYP
  CYP 2D6 (% inhibition of Control): 19%
[7]; human recombinant CYP
  CYP 3A4 (% inhibition of Control): 93%

## Cc1ccc(C(NC(=O)Cc2ccc3oc(C(O)c4c(C)noc4C)cc3c2)c2ccccc2)c(C)c1 (single isomer, unassigned) [Cpd. T-4, 2-(2-(hydroxy(3,5-dimethylisoxazol-4-yl)methyl)benzofuran-5-yl)-N-((2,4-dimethylphenyl)(phenyl)methyl)acetamide, reference compound]
[1]
  Human microsomes (% Cpd. remaining at 60 min): 0%
[2]
  Mouse microsomes (% Cpd. remaining at 60 min): 0%
[3]
  CYP 1A2 (% inhibition of Control): −3%
[4]; human, recombinant CYP2C9, human recombinant CYP, read-out: CYP 2C9 (% inhibition of Control)
  inhibition at 10 µM: 73%
[5]; human, recombinant CYP2C19, probe 3-cyano-7-ethoxycoumarin, read-out: CYP 2C19 (% inhibition of Control)
  inhibition at 10 µM: 85%
[6]; human, recombinant CYP2D6, human recombinant CYP, read-out: CYP 2D6 (% inhibition of Control)
  inhibition at 10 µM: 31%
[7]; human, recombinant CYP3A4, probe 7-benzyloxy-4-trifluoromethylcoumarin, read-out: CYP 3A4 (% inhibition of Control)
  inhibition at 10 µM: 82%
[8]; daily by gavage, Cpd. 1 at 3 and 10 mg/Kg, T4 compound at 1 and 10 mg/kg
  EAE clinical score: wasn't effective

## CC(=O)Nc1nc(C)c(S(=O)(=O)Nc2ccc(C(O)(C(F)(F)F)C(F)(F)F)cc2)s1 [SR1001]
[9]
  efficacy in multiple sclerosis model: efficacious

## Cc1ccc([C@@H](NC(=O)Cc2ccc3oc([C@@H](O)c4c(C)noc4C)cc3c2)c2ccccc2)c(C)c1 [TMP778]
[10]
  efficacy in psoriasis model: efficacious

## Cc1ccc(C(NC(=O)Cc2ccc3oc(C(O)c4c(C)noc4C)cc3c2)c2ccccc2)c(C)c1 (centres unmarked) [compound T, 2-(2-(hydroxy(3,5-dimethylisoxazol-4-yl)methyl)benzofuran-5-yl)-N-((2,4-dimethylphenyl)(phenyl)methyl)acetamide, reference compound]
[8]; administered p/os (orally) for 20 days
  onset of EAE: ineffective
[10]
  efficacy in psoriasis model: efficacious

## Ustekinumab: anti-p40 monoclonal antibody that targets Th17 and Th1 through IL-23 and IL-12
[11]
  clinical efficacy in refractory Crohn diseased patients: clinical (phase IIb) efficacy
